Assay results taken from PMC6120666 (The EMBO Journal, 2018).

Tests used:
Assay in all cases: Drug affinity chromatography with c-ponatinib and LC-MS/MS (ponatinib interactome)
Format in all cases: binding
[1] = biological target: T1, proteins of U2OS cell lysate (Homo sapiens, UniProt Q14204); settings: DYNC1H1, Cytoplasmic dynein 1 heavy chain 1
T1 construct: Proteins enriched by c-ponatinib from U2OS cell lysate; endogenous in cells; host or cells: U2OS cell lysate
In short: (§1)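 Proteins were identified by nano-UPLC–MS/MS after elution with formic acid and trypsin digestion. They were captured from U2OS lysate (2 mg protein per pulldown, NP-40 buffer) on amine-coupled NHS beads during a 2 h incubation at 4 °C.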

[2] = biological target: T2, proteins of U2OS cell lysate (Homo sapiens, UniProt Q01082); settings: SPTBN1, Spectrin beta chain, non-erythrocytic 1
T2 construct: Proteins enriched by c-ponatinib from U2OS cell lysate; endogenous in cells; host or cells: U2OS cell lysate
In short: as §1

[3] = biological target: T3, proteins of U2OS cell lysate (Homo sapiens, UniProt Q9P2E9); settings: RRBP1, Ribosome-binding protein 1
T3 construct: Proteins enriched by c-ponatinib from U2OS cell lysate; endogenous in cells; host or cells: U2OS cell lysate
In short: as §1

[4] = biological target: T4, proteins of U2OS cell lysate (Homo sapiens, UniProt P61964); settings: WDR5, WD repeat-containing protein 5
T4 construct: Proteins enriched by c-ponatinib from U2OS cell lysate; endogenous in cells; host or cells: U2OS cell lysate
In short: as §1

[5] = biological target: T5, proteins of U2OS cell lysate (Homo sapiens, UniProt Q69YQ0); settings: SPECC1L, Cytospin-A
T5 construct: Proteins enriched by c-ponatinib from U2OS cell lysate; endogenous in cells; host or cells: U2OS cell lysate
In short: as §1

[6] = biological target: T6, proteins of U2OS cell lysate (Homo sapiens, UniProt O00303); settings: EIF3F, Eukaryotic translation initiation factor 3 subunit F
T6 construct: Proteins enriched by c-ponatinib from U2OS cell lysate; endogenous in cells; host or cells: U2OS cell lysate
In short: as §1

[7] = biological target: T7, proteins of U2OS cell lysate (Homo sapiens, UniProt P43487); settings: RANBP1, Ran-specific GTPase-activating protein
T7 construct: Proteins enriched by c-ponatinib from U2OS cell lysate; endogenous in cells; host or cells: U2OS cell lysate
In short: as §1

[8] = biological target: T8, proteins of U2OS cell lysate (Homo sapiens, UniProt P09669); settings: COX6C, Cytochrome c oxidase subunit 6C
T8 construct: Proteins enriched by c-ponatinib from U2OS cell lysate; endogenous in cells; host or cells: U2OS cell lysate
In short: as §1

[9] = biological target: T9, proteins of U2OS cell lysate (Homo sapiens, UniProt P05556); settings: ITGB1, Integrin beta-1
T9 construct: Proteins enriched by c-ponatinib from U2OS cell lysate; endogenous in cells; host or cells: U2OS cell lysate
In short: as §1

[10] = biological target: T10, proteins of U2OS cell lysate (Homo sapiens, UniProt Q9NYJ8); settings: TAB2, TGF-beta-activated kinase 1 and MAP3K7-binding protein 2
T10 construct: Proteins enriched by c-ponatinib from U2OS cell lysate; endogenous in cells; host or cells: U2OS cell lysate
In short: as §1

[11] = biological target: T11, proteins of U2OS cell lysate (Homo sapiens, UniProt P22830); settings: FECH, Ferrochelatase, mitochondrial
T11 construct: Proteins enriched by c-ponatinib from U2OS cell lysate; endogenous in cells; host or cells: U2OS cell lysate
In short: as §1

[12] = biological target: T12, proteins of U2OS cell lysate (Homo sapiens, UniProt P31946); settings: YWHAB, 14-3-3 protein beta/alpha
T12 construct: Proteins enriched by c-ponatinib from U2OS cell lysate; endogenous in cells; host or cells: U2OS cell lysate
In short: as §1

[13] = biological target: T13, proteins of U2OS cell lysate (Homo sapiens, UniProt P50991); settings: CCT4, T-complex protein 1 subunit delta
T13 construct: Proteins enriched by c-ponatinib from U2OS cell lysate; endogenous in cells; host or cells: U2OS cell lysate
In short: as §1

[14] = biological target: T14, proteins of U2OS cell lysate (Homo sapiens, UniProt P02545); settings: LMNA, Prelamin-A/C;Lamin-A/C
T14 construct: Proteins enriched by c-ponatinib from U2OS cell lysate; endogenous in cells; host or cells: U2OS cell lysate
In short: as §1

[15] = biological target: T15, proteins of U2OS cell lysate (Homo sapiens, UniProt P04843); settings: RPN1, Dolichyl-diphosphooligosaccharide--protein glycosyltransferase subunit 1
T15 construct: Proteins enriched by c-ponatinib from U2OS cell lysate; endogenous in cells; host or cells: U2OS cell lysate
In short: as §1

[16] = biological target: T16, proteins of U2OS cell lysate (Homo sapiens, UniProt Q14203); settings: DCTN1, Dynactin subunit 1
T16 construct: Proteins enriched by c-ponatinib from U2OS cell lysate; endogenous in cells; host or cells: U2OS cell lysate
In short: as §1

[17] = biological target: T17, proteins of U2OS cell lysate (Homo sapiens, UniProt P54760); settings: EPHB4, Ephrin type-B receptor 4
T17 construct: Proteins enriched by c-ponatinib from U2OS cell lysate; endogenous in cells; host or cells: U2OS cell lysate
In short: as §1

[18] = biological target: T18, proteins of U2OS cell lysate (Homo sapiens, UniProt P08670); settings: VIM, Vimentin
T18 construct: Proteins enriched by c-ponatinib from U2OS cell lysate; endogenous in cells; host or cells: U2OS cell lysate
In short: as §1

[19] = biological target: T19, proteins of U2OS cell lysate (Homo sapiens, UniProt Q8WWI1); settings: LMO7, LIM domain only protein 7
T19 construct: Proteins enriched by c-ponatinib from U2OS cell lysate; endogenous in cells; host or cells: U2OS cell lysate
In short: as §1

T7 sequence (P43487 whole entry): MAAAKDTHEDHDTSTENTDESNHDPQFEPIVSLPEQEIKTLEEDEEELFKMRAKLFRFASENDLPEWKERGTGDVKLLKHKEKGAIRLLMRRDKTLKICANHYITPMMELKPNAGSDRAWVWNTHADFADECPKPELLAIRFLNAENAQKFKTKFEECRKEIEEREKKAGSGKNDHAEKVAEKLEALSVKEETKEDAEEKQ
T11 sequence (P22830 55-423): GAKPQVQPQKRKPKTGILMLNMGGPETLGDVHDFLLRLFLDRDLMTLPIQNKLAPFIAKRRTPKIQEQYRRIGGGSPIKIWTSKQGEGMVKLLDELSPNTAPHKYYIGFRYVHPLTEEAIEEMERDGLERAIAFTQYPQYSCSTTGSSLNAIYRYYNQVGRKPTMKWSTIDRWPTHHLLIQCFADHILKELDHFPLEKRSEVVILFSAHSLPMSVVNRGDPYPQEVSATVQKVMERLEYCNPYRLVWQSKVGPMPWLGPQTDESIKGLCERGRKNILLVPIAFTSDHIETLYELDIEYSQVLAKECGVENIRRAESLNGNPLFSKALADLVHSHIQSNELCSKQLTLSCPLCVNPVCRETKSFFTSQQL
T15 sequence (P04843 24-607): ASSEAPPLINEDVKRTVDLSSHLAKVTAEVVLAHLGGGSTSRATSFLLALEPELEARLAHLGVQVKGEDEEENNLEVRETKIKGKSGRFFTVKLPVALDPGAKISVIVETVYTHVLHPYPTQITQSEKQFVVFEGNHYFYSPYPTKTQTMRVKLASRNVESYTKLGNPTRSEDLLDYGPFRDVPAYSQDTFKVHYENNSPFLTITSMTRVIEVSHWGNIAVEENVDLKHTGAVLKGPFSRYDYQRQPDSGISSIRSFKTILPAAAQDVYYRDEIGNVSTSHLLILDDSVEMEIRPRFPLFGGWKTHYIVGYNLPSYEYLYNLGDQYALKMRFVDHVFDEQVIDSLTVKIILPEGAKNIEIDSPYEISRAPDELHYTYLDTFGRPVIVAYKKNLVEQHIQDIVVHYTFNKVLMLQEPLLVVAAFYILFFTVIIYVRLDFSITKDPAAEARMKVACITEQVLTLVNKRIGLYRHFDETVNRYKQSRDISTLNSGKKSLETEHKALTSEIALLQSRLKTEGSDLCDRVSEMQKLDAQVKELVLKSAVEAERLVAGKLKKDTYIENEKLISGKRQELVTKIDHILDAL
T10 sequence (Q9NYJ8 whole entry): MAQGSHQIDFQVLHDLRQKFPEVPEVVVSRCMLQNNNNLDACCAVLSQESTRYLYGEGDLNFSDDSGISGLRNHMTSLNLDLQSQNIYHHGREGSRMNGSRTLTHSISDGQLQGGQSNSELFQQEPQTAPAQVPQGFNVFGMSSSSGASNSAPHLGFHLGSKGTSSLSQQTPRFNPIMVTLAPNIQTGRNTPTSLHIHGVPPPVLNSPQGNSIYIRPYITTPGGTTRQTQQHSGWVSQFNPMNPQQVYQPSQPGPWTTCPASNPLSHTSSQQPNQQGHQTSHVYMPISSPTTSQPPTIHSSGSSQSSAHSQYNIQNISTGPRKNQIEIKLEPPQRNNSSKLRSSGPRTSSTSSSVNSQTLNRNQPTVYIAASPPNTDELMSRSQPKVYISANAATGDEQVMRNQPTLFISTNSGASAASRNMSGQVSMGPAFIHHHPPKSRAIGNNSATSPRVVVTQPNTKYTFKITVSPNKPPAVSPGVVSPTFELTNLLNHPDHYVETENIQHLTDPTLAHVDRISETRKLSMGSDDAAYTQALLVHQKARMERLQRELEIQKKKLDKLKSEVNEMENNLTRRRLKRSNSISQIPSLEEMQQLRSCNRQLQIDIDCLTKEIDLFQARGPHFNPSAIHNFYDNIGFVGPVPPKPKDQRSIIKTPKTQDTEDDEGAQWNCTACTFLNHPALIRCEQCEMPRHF
T2 sequence (Q01082 whole entry): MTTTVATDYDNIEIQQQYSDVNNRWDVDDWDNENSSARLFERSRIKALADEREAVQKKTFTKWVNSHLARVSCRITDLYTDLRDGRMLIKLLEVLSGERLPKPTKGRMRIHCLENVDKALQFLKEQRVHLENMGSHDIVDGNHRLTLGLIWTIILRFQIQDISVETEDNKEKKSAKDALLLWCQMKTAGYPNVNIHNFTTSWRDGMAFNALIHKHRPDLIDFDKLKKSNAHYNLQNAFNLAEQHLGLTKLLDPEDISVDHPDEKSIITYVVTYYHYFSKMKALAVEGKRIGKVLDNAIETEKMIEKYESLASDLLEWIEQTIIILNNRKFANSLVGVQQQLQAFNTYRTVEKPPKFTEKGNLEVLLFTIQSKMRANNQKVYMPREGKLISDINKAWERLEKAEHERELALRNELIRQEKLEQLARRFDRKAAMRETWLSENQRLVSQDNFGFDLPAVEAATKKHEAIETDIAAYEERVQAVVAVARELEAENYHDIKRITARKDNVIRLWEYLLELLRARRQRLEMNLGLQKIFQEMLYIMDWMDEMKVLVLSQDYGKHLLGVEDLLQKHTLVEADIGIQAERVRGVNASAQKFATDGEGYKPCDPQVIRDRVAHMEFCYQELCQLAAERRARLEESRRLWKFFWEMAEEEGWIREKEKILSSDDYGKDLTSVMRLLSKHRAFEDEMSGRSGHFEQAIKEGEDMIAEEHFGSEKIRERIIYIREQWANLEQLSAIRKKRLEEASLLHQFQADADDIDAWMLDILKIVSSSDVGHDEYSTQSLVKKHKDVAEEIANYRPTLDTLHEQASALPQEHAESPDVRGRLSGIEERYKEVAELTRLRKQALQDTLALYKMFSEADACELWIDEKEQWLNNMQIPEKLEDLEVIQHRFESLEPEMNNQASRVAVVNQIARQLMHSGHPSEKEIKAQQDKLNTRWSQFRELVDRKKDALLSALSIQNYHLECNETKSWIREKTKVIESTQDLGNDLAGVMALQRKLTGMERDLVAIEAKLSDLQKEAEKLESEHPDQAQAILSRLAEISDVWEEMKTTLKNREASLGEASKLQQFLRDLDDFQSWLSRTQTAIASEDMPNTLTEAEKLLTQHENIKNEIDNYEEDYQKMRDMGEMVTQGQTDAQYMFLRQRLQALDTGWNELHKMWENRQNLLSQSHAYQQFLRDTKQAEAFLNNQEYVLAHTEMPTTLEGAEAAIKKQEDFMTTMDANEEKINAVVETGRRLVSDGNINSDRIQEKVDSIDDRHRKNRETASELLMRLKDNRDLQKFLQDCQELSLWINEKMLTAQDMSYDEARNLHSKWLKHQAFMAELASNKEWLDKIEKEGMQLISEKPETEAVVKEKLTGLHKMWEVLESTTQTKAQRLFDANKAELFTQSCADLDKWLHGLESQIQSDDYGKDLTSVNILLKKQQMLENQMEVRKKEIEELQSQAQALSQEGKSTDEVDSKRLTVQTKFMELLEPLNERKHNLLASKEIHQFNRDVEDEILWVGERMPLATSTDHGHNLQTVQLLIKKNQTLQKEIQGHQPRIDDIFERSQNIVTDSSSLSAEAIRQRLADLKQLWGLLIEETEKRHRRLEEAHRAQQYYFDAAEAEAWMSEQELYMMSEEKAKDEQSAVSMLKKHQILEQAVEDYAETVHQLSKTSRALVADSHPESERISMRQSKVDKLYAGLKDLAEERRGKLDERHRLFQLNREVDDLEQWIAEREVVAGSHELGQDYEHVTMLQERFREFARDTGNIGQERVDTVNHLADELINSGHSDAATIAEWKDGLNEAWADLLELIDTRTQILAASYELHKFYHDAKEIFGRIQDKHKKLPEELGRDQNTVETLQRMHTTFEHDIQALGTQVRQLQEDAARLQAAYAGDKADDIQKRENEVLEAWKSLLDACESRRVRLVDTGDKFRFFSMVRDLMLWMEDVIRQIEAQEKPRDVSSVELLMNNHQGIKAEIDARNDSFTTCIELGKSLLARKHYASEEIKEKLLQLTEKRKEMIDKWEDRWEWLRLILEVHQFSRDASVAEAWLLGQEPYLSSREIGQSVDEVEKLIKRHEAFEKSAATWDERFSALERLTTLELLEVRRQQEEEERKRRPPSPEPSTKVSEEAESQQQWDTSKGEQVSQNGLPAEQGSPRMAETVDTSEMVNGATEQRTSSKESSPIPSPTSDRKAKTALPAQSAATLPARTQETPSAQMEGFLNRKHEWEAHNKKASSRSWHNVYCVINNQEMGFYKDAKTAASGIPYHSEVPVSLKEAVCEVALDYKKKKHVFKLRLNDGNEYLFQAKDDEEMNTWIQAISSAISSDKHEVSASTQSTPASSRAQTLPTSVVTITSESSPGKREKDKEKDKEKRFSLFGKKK
T14 sequence (P02545 whole entry): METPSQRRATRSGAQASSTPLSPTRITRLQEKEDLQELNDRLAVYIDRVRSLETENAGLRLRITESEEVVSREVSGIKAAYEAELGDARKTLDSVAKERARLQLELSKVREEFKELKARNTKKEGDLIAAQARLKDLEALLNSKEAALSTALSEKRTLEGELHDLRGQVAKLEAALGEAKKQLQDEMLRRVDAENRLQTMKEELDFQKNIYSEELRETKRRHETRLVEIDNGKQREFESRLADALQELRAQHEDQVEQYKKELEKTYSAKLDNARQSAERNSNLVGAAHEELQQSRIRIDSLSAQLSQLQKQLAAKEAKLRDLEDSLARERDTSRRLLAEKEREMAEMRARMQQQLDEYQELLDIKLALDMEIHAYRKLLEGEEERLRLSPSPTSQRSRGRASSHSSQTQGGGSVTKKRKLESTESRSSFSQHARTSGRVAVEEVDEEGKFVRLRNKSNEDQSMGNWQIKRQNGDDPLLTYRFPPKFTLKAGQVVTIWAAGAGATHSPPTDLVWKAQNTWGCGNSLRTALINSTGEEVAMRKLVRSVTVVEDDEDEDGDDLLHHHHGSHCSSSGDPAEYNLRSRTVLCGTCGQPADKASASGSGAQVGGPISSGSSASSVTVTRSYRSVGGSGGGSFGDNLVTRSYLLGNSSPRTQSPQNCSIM
T8 sequence (P09669 whole entry): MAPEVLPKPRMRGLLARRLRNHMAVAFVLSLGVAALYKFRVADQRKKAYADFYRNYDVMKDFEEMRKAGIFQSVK

In the case of `Cc1ccc(C(=O)Nc2ccc(CN3CCN(C)CC3)c(C(F)(F)F)c2)cc1C#Cc1cnc2cccnn12` [PON], the “Average LFQ PON_WT” value [1] is reported as 24.2612, the “Average LFQ PON_WT” value [2] is reported as 25.171 and the “Average LFQ PON_WT” value [3] is reported as 20.1458. For the same compound, the “Average LFQ PON_WT” value [4] was 20.2851, the “Average LFQ PON_WT” value [5] was 20.8707 and the “Average LFQ PON_WT” value [6] was 23.4858. The “Average LFQ PON_WT” value [7] was 20.4588, the “Average LFQ PON_WT” value [8] was 20.8234 and the “Average LFQ PON_WT” value [9] was 20.3187. For the same compound, the “Average LFQ PON_WT” value [10] was 24.3605, the “Average LFQ PON_WT” value [11] was 25.7972 and the “Average LFQ PON_WT” value [12] was 23.524. For the same compound, the “Average LFQ PON_WT” value [13] was 23.8741, the “Average LFQ PON_WT” value [14] was 23.7594 and the “Average LFQ PON_WT” value [15] was 23.8993. For the same compound, the “Average LFQ PON_WT” value [16] was 21.0359, the “Average LFQ PON_WT” value [17] was 25.577 and the “Average LFQ PON_WT” value [18] was 26.7986. The “Average LFQ PON_WT” value [19] was 20.1594.
